Earlier results in publication PMC7651685 (Psychopharmacology, 2020).

Tests used:
[1] = test system: dopamine efflux in the nucleus accumbens; set-up: method as in Rowley et al. [2017]; settings: rat nucleus accumbens microdialysis; ref Rowley et al. [2017]; cited from earlier work
[2] = test system: DAT; settings: ref Markowitz et al. [2006]; read-out: Affinity for DAT, IC50; cited from earlier work
[3] = no reference given; cited from earlier work

SMILES | Time of peak of dopamine efflux [1] [min] | also measured
C[C@H](N)Cc1ccccc1 [d-amphetamine] | 40 | –
CC(C)(N)Cc1ccccc1 [phentermine] | 40 | –
O=C(O)C(c1ccccc1)C1CCCCN1 (stereo not shown) [ritalinic acid] | – | Pharmacological activity [3]: pharmacologically inactive
